Source: patent US20230416266A1, “6,7-DIHYDRO-PYRANO[2,3-d]PYRIMIDINE INHIBITORS OF KRAS G12C MUTANT” (Merck Sharp & Dohme Corp., priority 2020, published 2023)
Like-named read-outs stand apart in the source and are kept apart here.

Assays:
[1] = tested on: phosphorylation of Erk in NCI-H358 cells; experiment: Cellular phospho-ERK assay; type: cell-based; details: 2 hour incubation, ratio of p-Erk vs total Erk, read-out: IC50 (nM) pERK (Cell)
Experimental: NCI-H358 cells (ATCC® CRL-5807™) were cultured in T150 flask in growth medium (RPMI medium 1640-GlutaMAX™-I (ThermoFisher Scientific 61870) containing 10% fetal bovine serum (ThermoFisher Scientific 10091148)). The cells were harvested in growth medium after TrypLE (ThermoFisher scientific 12604021) digestion and were seeded in 384-well collagen coated cell culture plate (Corning 356702) at a density of 15,000 cells/well, and incubated at 37° C., 5% CO2 overnight. The compound dose-response titrations were prepared and appropriate amounts of compounds were dispensed in a 384-well intermediate plate using an Echo 550 liquid handler. RPMI medium 1640-GluiaMAX™-I were added to the intermediate plate and transferred to 384-well cell culture plate, which was incubated at 37° C., 5% CO2 for 2 hours. After removal of medium from the plate, cells were lysed in lysis buffer from Alpha SureFire® Ultra™ Multiplex p-Erk and total Erk assay kit (PerkinElmer MPSU-PIERK) containing Halt™ Protease and Phosphotase inhibitor cocktail (ThermoFisher Scientific 78446) at room temperature with constant shaking at 300 rpm for 30 minutes. The cell lysates were then transferred to OptiPlate-384 plate (PerkinElmer 6005620) and the phosphorylation of Erk and total Erk levels were detected by Alpha SureFire Ultra Multiplex p-Erk kit (PerkinElmer MPSU-PIERK) following the manufacturer's protocol. Assay plates were read on an EnVision Multimode Plate Reader (PerkinElmer), and the ratio of p-Erk vs total Erk in each well was used as the final readout. Dose response curves were analyzed using a 4-parameter logistic model to calculate IC50 values using spotfire software.

[2] = target: T1, Biotinylated KRAS G12C protein (KRAS G12C/C51S/C80L/C118S, SEQ ID NO: 1) (Homo sapiens, UniProt P01116, C118S/C51S/C80L/G12C); experiment: SOS-catalyzed nucleotide exchange assay (TR-FRET); type: biochemical; details: in vitro apparent potency; preincubation time of 60 minutes prior to addition of SOS
T1 construct: 183 amino acids; biotin on K10
T1 sequence (P01116 with tags, fused parts or gaps isoform P01116-2 G12C/C51S/C80L/C118S): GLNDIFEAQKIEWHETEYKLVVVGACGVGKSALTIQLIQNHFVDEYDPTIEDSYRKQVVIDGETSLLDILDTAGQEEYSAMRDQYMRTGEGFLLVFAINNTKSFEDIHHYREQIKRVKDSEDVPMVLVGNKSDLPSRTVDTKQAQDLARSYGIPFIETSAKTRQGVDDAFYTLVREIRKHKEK
Experimental: The SOS-catalyzed nucleotide exchange assay utilizes a preformed complex of recombinant biotinylated KRAS protein containing G12C/C51S/C80L/C118S mutations (183 amino acids; biotin on K10; leader sequence which is an AviTag; referred to as SEQ ID NO: 1 or “Biotinylated KRAS G12C protein” hereafter), Bodipy-GDP, and Terbium-streptavidin. Compounds are added to this complex and then after 60 minutes, the mixture is treated with recombinant SOS protein and unlabeled GTP. Small molecule inhibitors stabilize the Bodipy-GDP complex whereas the untreated protein rapidly exchanges Bodipy-GDP for unlabeled GTP resulting in reduced TR-FRET signal.
Biotinylated KRAS G12C protein (SEQ ID NO: 1) is diluted to 2 μM in an EDTA buffer (20 mM HEPES, 150 mM sodium chloride, 10 mM EDTA, and 0.01% Tween) and incubated at room temperature for one hour. This mixture is then further diluted to 90nM in an assay buffer (20 mM HEPES, 150 mM sodium chloride, 10 mM magnesium chloride, and 0.005% Tween) containing 15 nM of Terbium-Streptavidin (Invitrogen, catalog #PV3577) and 900 nM of Bodipy-GDP and incubated at room temperature for six hours. This solution is referred to as Biotinylated KRAS G12C mixture.
Each test compound (10 mM stock in DMSO) is diluted in DMSO to make a 10-point, 3-fold dilution series in a 384-well low dead volume microplate (Labcyte, catalog #LP-0200). Once titrations are made, 10 nL of the diluted compounds is acoustically dispensed into a 384-well plate (Corning, catalog #3820) using an Echo 550 (Labcyte).
Each well of the plate receives 3 μL Biotinylated KRAS G12C mixture that had been incubating for six hours and 3 μL of assay buffer using a BioRAPTR (Beckman Coulter) and is incubated at room temperature for 60 minutes. Each well then receives 3 μL of 240 nM recombinant human SOS protein and 9 mM GTP (Sigma, G8877) in assay buffer and is incubated at room temperature for 60 minutes.
The time-resolved fluorescence resonance energy transfer signal of the plate is measured on an Envision (PerkinElmer) plate reader: Excitation filter=340 nm; emission1=495 nm; emission2=520 nm; dichroic mirror=D400/D505; delay time=100 μs. The signal of each well is determined as the ratio of the emission at 520 nm to that at 495 nm. Percent effect of each well is determined after normalization to control wells containing DMSO (no effect) or a saturating concentration of inhibitor (max effect). The apparent effect as a function of compound concentration is fit to a four parameter logistic equation.

Row | Structure (SMILES) | IC50 ([1]; Homo sapiens, NCI-H358, 2 h) | IC50 [2] | IC50 [1]
1 | C=CC(=O)N1CCN(c2nc(OC[C@@H]3CCCN3C)nc3c2CCC(C)(c2cccc4ccccc24)O3)C[C@@H]1CC#N (stereo partly drawn) [Compound 6, 2-((2S)-1-acryloyl-4-(7-methyl-2-(((S)-1-methylpyrrolidin-2-yl)methoxy)-7-(naphthalen-1-yl)-6,7-dihydro-5H-pyrano[2,3-d]pyrimidin-4-yl)piperazin-2-yl)acetonitrile] | 24100 nM | 632 nM | –
2 | C=CC(=O)N1CCN(c2nc(OC[C@@H]3CCCN3C)nc3c2CCC(c2c(O)cccc2F)O3)C[C@@H]1CC#N (mixture of isomers) [Compound 3, 2-((2S)-1-acryloyl-4-(7-(2-fluoro-6-hydroxyphenyl)-2-(((S)-1-methylpyrrolidin-2-yl)methoxy)-6,7-dihydro-5H-pyrano[2,3-d]pyrimidin-4-yl)piperazin-2-yl)acetonitrile] | 15700 nM | 793 nM | –
3 | C=CC(=O)N1CCN(c2nc(OC[C@@H]3CCCN3C)nc3c2CCC(c2cccc4ccccc24)O3)C[C@@H]1CC#N (single isomer, unassigned) [Compound 1b] | – | 395 nM | 9020 nM
4 | C=CC(=O)N1CCN(c2nc(OC[C@@H]3CCCN3C)nc3c2CC(C)C(c2cccc4ccccc24)O3)C[C@@H]1CC#N (single isomer, unassigned) [Compound 10b] | – | 153 nM | 5230 nM
5 | C=CC(=O)N1CCN(c2nc(OC[C@@H]3CCCN3C)nc3c2CCC(c2cccc4c(F)cccc24)O3)C[C@@H]1CC#N (single isomer, unassigned) [Compound 5a] | 6350 nM | 88.6 nM | –
6 | C=CC(=O)N1CCN(c2nc(OC[C@@H]3CCCN3C)nc3c2CC(C)C(c2cccc4ccccc24)O3)C[C@@H]1CC#N (single isomer, unassigned) [Compound 9b] | – | 2130 nM | 21300 nM
7 | C=CC(=O)N1CCN(c2nc(C(=O)N[C@H](C)CN(C)C)nc3c2CCC(c2cccc4ccccc24)O3)C[C@@H]1CC#N (mixture of isomers) [Compound 11, 4-((S)-4-Acryloyl-3-(cyanomethyl)piperazin-1-yl)-N-((R)-1-(dimethylamino)propan-2-yl)-7-(naphthalen-1-yl)-6,7-dihydro-5H-pyrano[2,3-d]pyrimidine-2-carboxamide] | 21700 nM | 1410 nM | –
8 | C=CC(=O)N1CCN(c2nc(OC[C@@H]3CCCN3C)nc3c2CCC(c2cccc4cc(O)ccc24)O3)C[C@@H]1CC#N (single isomer, unassigned) [Compound 8a] | 26200 nM | 817 nM | –
9 | C=CC(=O)N1CCN(c2nc(OC[C@@H]3CCCN3C)nc3c2CC(C)C(c2cccc4ccccc24)O3)C[C@@H]1CC#N (single isomer, unassigned) [Compound 9a] | – | 259 nM | 13200 nM
10 | C=CC(=O)N1CCN(c2nc(OC[C@@H]3CCCN3C)nc3c2CCC(c2cccc4ccccc24)O3)C[C@@H]1CC#N (single isomer, unassigned) [Compound 1a] | – | 11.4 nM | 578 nM
11 | C=CC(=O)N1CCN(c2nc(OC[C@@H]3CCCN3C)nc3c2CCC(c2c(Cl)c(C)cc4[nH]ncc24)O3)C[C@@H]1CC#N (single isomer, unassigned) [Compound 4a] | 19200 nM | 104 nM | –
12 | C=CC(=O)N1CCN(c2nc(OC[C@@H]3CCCN3C)nc3c2CCC(c2c(Cl)c(C)cc4[nH]ncc24)O3)C[C@@H]1CC#N (single isomer, unassigned) [Compound 4b] | – | 2690 nM | 30000 nM
13 | C=CC(=O)N1CCN(c2nc(OC[C@@H]3CCCN3C)nc3c2CC(C)C(c2cccc4ccccc24)O3)C[C@@H]1CC#N (single isomer, unassigned) [Compound 10a] | – | 12.9 nM | 704 nM
14 | C=CC(=O)N1CCN(c2nc(OC[C@@H]3CCCN3C)nc3c2CCC(c2cccc4c(F)cccc24)O3)C[C@@H]1CC#N (single isomer, unassigned) [Compound 5b] | – | 195 nM | 10300 nM
15 | C=CC(=O)N1CCN(c2nc(OC[C@@H]3CCCN3C)nc3c2CCC(c2cccc4cccc(C)c24)O3)C[C@@H]1CC#N (mixture of isomers) [Compound 2, 2-((2S)-1-acryloyl-4-(7-(8-methylnaphthalen-1-yl)-2-(((S)-1-methylpyrrolidin-2-yl)methoxy)-6,7-dihydro-5H-pyrano[2,3-d]pyrimidin-4-yl)piperazin-2-yl)acetonitrile] | 501 nM | 17.5 nM | –
16 | C=CC(=O)N1CCN(c2nc(OC[C@@H]3CCCN3C)nc3c2CC(F)(F)C(c2cccc4ccccc24)O3)C[C@@H]1CC#N (single isomer, unassigned) [Compound 7a] | – | 13.8 nM | 394 nM
17 | C=CC(=O)N1CCN(c2nc(OC[C@@H]3CCCN3C)nc3c2CCC(c2cccc4ccc5[nH]ncc5c24)O3)C[C@@H]1CC#N (mixture of isomers) [Compound 12, 2-((2S)-4-(7-(3H-benzo[e]indazol-9-yl)-2-(((S)-1-methylpyrrolidin-2-yl)methoxy)-6,7-dihydro-5H-pyrano[2,3-d]pyrimidin-4-yl)-1-acryloylpiperazin-2-yl)acetonitrile] | 18500 nM | 87.1 nM | –
18 | C=CC(=O)N1CCN(c2nc(OC[C@@H]3CCCN3C)nc3c2CC(F)(F)C(c2cccc4ccccc24)O3)C[C@@H]1CC#N (single isomer, unassigned) [Compound 7b] | – | 84.8 nM | 2380 nM
